Reference: BigSolDB 2.1

Oc1ccccc1C=N[C@@H]1CCCC[C@H]1N=Cc1ccccc1O
solubility (mole fraction)
Conditions | 273.15 K | 278.15 K | 283.15 K | 288.15 K | 293.15 K | 298.15 K | 303.15 K | 308.15 K | 313.15 K
in 1,2-dichloroethane | 0.0862 | 0.0965 | 0.109 | 0.12 | 0.134 | 0.15 | 0.168 | 0.187 | 0.211
in THF | 0.135 | 0.144 | 0.157 | 0.169 | 0.186 | 0.201 | 0.221 | 0.242 | 0.263
in acetone | 0.0295 | 0.0351 | 0.0402 | 0.0462 | 0.053 | 0.0626 | 0.0732 | 0.0843 | 0.0956
in acetonitrile | 0.00397 | 0.00491 | 0.00616 | 0.0076 | 0.00961 | 0.0122 | 0.0159 | 0.02 | 0.025
in dichloromethane | 0.117 | 0.13 | 0.141 | 0.154 | 0.165 | 0.18 | 0.197 | 0.213 | 0.229
in ethanol | 0.000787 | 0.000988 | 0.00123 | 0.00153 | 0.00189 | 0.00236 | 0.0029 | 0.00358 | 0.00452
in ethyl acetate | 0.0241 | 0.0294 | 0.0347 | 0.0415 | 0.0489 | 0.0592 | 0.0691 | 0.0852 | 0.101
in methanol | 0.00051 | 0.000645 | 0.000817 | 0.00103 | 0.00128 | 0.00161 | 0.00198 | 0.00242 | 0.00298
in methyl acetate | 0.0199 | 0.0244 | 0.0292 | 0.0357 | 0.0436 | 0.0532 | 0.0648 | 0.0791 | 0.0961
in n-hexane | 0.000539 | 0.000713 | 0.000988 | 0.00131 | 0.00172 | 0.00223 | 0.00287 | 0.00376 | 0.00449
in n-propanol | 0.001 | 0.00125 | 0.00157 | 0.00196 | 0.00243 | 0.00303 | 0.00372 | 0.00452 | 0.00554
in toluene | 0.0411 | 0.0487 | 0.0566 | 0.0674 | 0.0802 | 0.0954 | 0.11 | 0.129 | 0.149
